Patent publication US11299715B2, “Use of iNOS inhibitors to increase viral yield in culture” (priority 2013, dated 2022)

Test system: rAAV-GFP vector
Assay: rAAV production by rHSV-rep2/cap2 and rHSV-EGFP co-infection of 293 cells
Assay type: cell-based, AAV
Method: 293 cells (2.5×10^6) were simultaneously co-infected with both rHSV-rep2/cap2 and rHSV-EGFP vectors as described by Kang et al., Gene Ther (2009) 16:229-239. At 2-4 hr post infection, infectious medium was exchanged with DMEM+10% FBS equivalent to double the preinfection culture volume. At the time of harvest, the cell pellet was frozen at −80° C. DRP titers were quantified by real-time polymerase chain reaction (qPCR) in a96-well block thermocycler (Applied Biosystems; 7500 Real Time PCR system). Crude samples were subjected to three cycles of freezing and thawing, then incubated in the presence of Benzonase (250 U/ml), 2 mM MgCl2, 1% final concentration protein grade Tween 80 (Calbiochem) and incubated at 37° C. for 60 min, followed by 0.25% Trypsin (Gibco) digestion at 50° C. for 60 min. Finally, treatment with DNase I (50 U/ml; Promega) at 37° C. for 30 min, and then denatured at 95° C. for 20 min. Linearized plasmidpDC67/+SV40 was used to generate standard curves. The primer-probe set was specific for the simian virus 40 (SV40) poly(A) sequence: rAAV-F: 5′-[…]-3′ (SEQ ID NO:4); rAAV-R: 5′-[…]-3′ (SEQ ID NO:5); rAAV-Probe: 5′ 6-FAM-[…]-TAMRA-3′ (SEQ ID NO:6).
In order to determine whether the presence of ATA during HSV production impacted the yield of rAAV virions produced using HSV vectors, the following experiment was performed showing rAAV titers affected by ATA residue present from rHSV-1 stocks produced in 293 cells (FIG. 5A). […] One-way ANOVA; Tukey's-test:*p<0.05; 20 μM ATA vs. No ATA; n=4 independent experiments.
This effect was not observed when the ATA concentrations were higher then 20 μM (FIG. 5B).

With `O=C(O)C1=CC(=C(c2ccc(O)c(C(=O)O)c2)c2ccc(O)c(C(=O)O)c2)C=CC1=O` [ATA, 5-((3-carboxy-4-hydroxyphenyl)(3-carboxy-4-oxo-2,5-cyclohexadien-1-ylidene)methyl)-2-hydroxybenzoic acid] the “rAAV titer, ATA spiked into 293 cell media during co-infection” value (10 μM ATA, 2 hrs co-infection step) was “increase”, the “rAAV titers using HSV stock prepared with 20 μM ATA” value (20 μM ATA added during infection) was “slightly increased” and the “rAAV titer increase at higher spiked ATA concentrations” value (ATA higher than 20 μM spiked into 293 cell media) was “not observed”. The “influence of ATA in rHSV-1 stocks on rAAV yield” value (ATA present in rHSV-1 stocks) was “did not negatively influence”, the “increase of rAAV DRP/ml titer versus No ATA control” value (rHSV-rep2/cap2 stock prepared with 20 μM ATA (Step 1), about 3 μM ATA during rAAV production, n=4) was 1.3 times and the “rAAV titer with rHSV-rep2/cap2 stock prepared with 12 μM ATA” value (stock prepared with 12 μM ATA, n=4) was “No significant rAAV titer increase”.
